Some test systems named below: HOP-62 NSCLC; OVCAR-3 ovarian; SK-MEL-2 melanoma; HL-60(TB) leukemia; SK-MEL-28 melanoma; KM12 colon; SN12C renal; SF-539 CNS; MCF7 breast.
Common to all, as to experiment: NCI anticancer screen, dose series, 48 h

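Results reflect a 48-hour exposure of cells in 96-well plates to compound at five concentrations. At the GI50, growth is halved. The concentration for full growth arrest is given as TGI.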

`N#CC(c1ccc(Cl)cc1)c1cccc(Cl)n1` (stereo not drawn): the TGI in the assay on HOP-62 NSCLC, in the assay on OVCAR-3 ovarian, in the assay with SK-MEL-2 melanoma, in the assay with HL-60(TB) leukemia, with SK-MEL-28 melanoma and with KM12 colon was over 100 µM throughout. The same compound registered a TGI in the assay on SN12C renal of over 100 µM.
With `CO/C=C/c1cc2c(cc1C(OC)OC)OCO2`, the TGI in the assay on HOP-62 NSCLC is 75 µM; in the assay with OVCAR-3 ovarian, 80.9 µM; with SK-MEL-2 melanoma it was over 100 µM; in the assay with HL-60(TB) leukemia, 18.9 µM; with SF-539 CNS, over 100 µM; with SK-MEL-28 melanoma, over 100 µM. Moreover, the TGI in the assay with KM12 colon and in the assay with SN12C renal was over 100 µM each time.
Turning to `Cc1ccc(C2=NN(C)COC2C(F)(F)F)cc1` (stereo not drawn), the TGI with HOP-62 NSCLC, in the assay on OVCAR-3 ovarian, in the assay with SK-MEL-2 melanoma, with HL-60(TB) leukemia, in the assay on SF-539 CNS and in the assay with SK-MEL-28 melanoma was over 100 µM throughout. Also, the TGI with KM12 colon and in the assay with SN12C renal was over 100 µM throughout.
Consider `CCC12CC[C@H](C#N)N3CCc4c(n(c5ccccc45)C(=O)C1)C32` (stereo partly drawn), for which the TGI in the assay on HOP-62 NSCLC was determined as 49.2 µM; in the assay with OVCAR-3 ovarian it was 29 µM; in the assay with SK-MEL-2 melanoma, 31.9 µM; in the assay on SF-539 CNS, 38.2 µM; in the assay on SK-MEL-28 melanoma, 40.4 µM; in the assay with KM12 colon it was 22.5 µM. This compound gave a TGI with SN12C renal of 37.8 µM.
Regarding `O=C(O/N=C1/CCC/C1=C\c1ccccc1)c1ccccc1`, the TGI in the assay with HOP-62 NSCLC, with OVCAR-3 ovarian, with SK-MEL-2 melanoma, with HL-60(TB) leukemia, in the assay on SF-539 CNS and in the assay with SK-MEL-28 melanoma was over 100 µM in each case. Also, the TGI with KM12 colon and in the assay on SN12C renal was over 100 µM each time.
With `COc1ccc(C2c3cc4c(cc3OC(O)(CO)C2C(=O)O)OCO4)c(OC)c1OC` (stereo not drawn) (tested in a mixture with another compound), the TGI with HOP-62 NSCLC, with OVCAR-3 ovarian, with SK-MEL-2 melanoma, in the assay on HL-60(TB) leukemia, in the assay on SF-539 CNS and in the assay with SK-MEL-28 melanoma was over 100 µM each time. In the assay with SN12C renal, this compound gave a TGI of over 100 µM.
Consider `Cc1cccc(Oc2ccc(Nc3ncnc4ccc(NC(=O)CN5CCN(C)CC5)cc34)cc2Cl)c1`, for which the GI50 was 1.42 µM in the assay with OVCAR-3 ovarian; 1.87 µM in the assay on SK-MEL-2 melanoma; 1.73 µM in the assay with SF-539 CNS; 1.74 µM in the assay with SK-MEL-28 melanoma; 1.74 µM in the assay on KM12 colon; 1510 nM with MCF7 breast. Besides, in the assay on SN12C renal, the GI50 was 1.72 µM. For the same compound, the TGI in the assay on OVCAR-3 ovarian stood at 2.99 µM; with SK-MEL-2 melanoma, 3.64 µM; in the assay with SF-539 CNS, 3.19 µM; in the assay with SK-MEL-28 melanoma, 3.2 µM; in the assay with KM12 colon it was 3.24 µM; with MCF7 breast it was 2.99 µM. For the same compound, the TGI in the assay with SN12C renal stood at 3.44 µM.
On to `C/C=C/C/C=C/CCC(=O)C1OC1C(N)=O` (stereo not drawn), for which the TGI stood at 15.8 µM with HOP-62 NSCLC; 32.8 µM in the assay on OVCAR-3 ovarian; 32.5 µM with SK-MEL-2 melanoma; 30.6 µM in the assay on SF-539 CNS; 30.6 µM in the assay with SK-MEL-28 melanoma; 29.5 µM with KM12 colon. Besides, the TGI was determined as 30.6 µM with MCF7 breast and 39.8 µM in the assay on SN12C renal.
As to `CC1CC(C)C(=O)C(C(=O)CC2CC(=O)NC2=O)C1` (stereo not drawn), the TGI with HOP-62 NSCLC, with OVCAR-3 ovarian, with HL-60(TB) leukemia, in the assay on SF-539 CNS, with SK-MEL-28 melanoma and with KM12 colon was over 100 µM in each case. Besides, in the assay with SN12C renal, the TGI was over 100 µM.
As to `N#Cc1c(C(N)=O)ncn1Cc1ccccc1`, the TGI in the assay on HOP-62 NSCLC, with OVCAR-3 ovarian, in the assay on SK-MEL-2 melanoma, with HL-60(TB) leukemia, in the assay with SF-539 CNS and in the assay on KM12 colon was over 100 µM throughout. The TGI in the assay with SN12C renal is over 100 µM.
Consider `Cn1cc(C(=O)/C(Cl)=C(\Cl)C(=O)O)c2ccccc21`, for which the TGI in the assay with HOP-62 NSCLC, with OVCAR-3 ovarian, with SK-MEL-2 melanoma, in the assay with HL-60(TB) leukemia, in the assay on SF-539 CNS and with SK-MEL-28 melanoma was over 100 µM throughout. Further, in the assay with KM12 colon, the TGI was over 100 µM.
Consider `O=C(Nc1ccc(N=Nc2ccccc2)cc1)Sc1ccccc1C(=O)O`, for which the TGI in the assay with HOP-62 NSCLC, in the assay with OVCAR-3 ovarian, in the assay with SK-MEL-2 melanoma, with HL-60(TB) leukemia, with SF-539 CNS and with SK-MEL-28 melanoma was over 100 µM in each case. Moreover, the TGI with KM12 colon and with SN12C renal was over 100 µM in each case.
Turning to `CC(=O)Oc1cc2c(=O)oc3c(OC(C)=O)c(OC(C)=O)c(OC(C)=O)c4c(=O)oc(c1OC(C)=O)c2c34`, the TGI in the assay on HOP-62 NSCLC is over 100 µM; in the assay on OVCAR-3 ovarian, over 100 µM; in the assay on SK-MEL-2 melanoma, over 100 µM; in the assay on HL-60(TB) leukemia it was over 100 µM; in the assay on SF-539 CNS, 75.5 µM; in the assay with SK-MEL-28 melanoma, over 100 µM. Further, the TGI was over 100 µM in the assay on KM12 colon and 61.1 µM in the assay on SN12C renal.
As for `CC(=O)[CH-]C(C)=O.CC(=O)[CH-]C(C)=O.CC(=O)[CH-]C(C)=O.[Cl-].[Hf+4]`, the GI50 in the assay with HOP-62 NSCLC, in the assay on OVCAR-3 ovarian, with SK-MEL-2 melanoma, with HL-60(TB) leukemia, with SF-539 CNS and with SK-MEL-28 melanoma was over 100 µM in each case. Besides, the GI50 in the assay with KM12 colon and in the assay on SN12C renal was over 100 µM each time. In addition, the TGI with HOP-62 NSCLC, with OVCAR-3 ovarian, with SK-MEL-2 melanoma, with HL-60(TB) leukemia, with SF-539 CNS and in the assay with SK-MEL-28 melanoma was over 100 µM in each case. In addition, the TGI in the assay on KM12 colon and with SN12C renal was over 100 µM throughout.
Turning to `C/C(=N\[N+](C)(C)C)C(c1ccccc1)C1(c2ccccc2)C(c2ccccc2)=C1c1ccccc1` (stereo not drawn), the TGI with HOP-62 NSCLC, in the assay on OVCAR-3 ovarian, in the assay on SK-MEL-2 melanoma, in the assay with HL-60(TB) leukemia, in the assay with SF-539 CNS and in the assay with KM12 colon was over 100 µM in each case. The compound also yielded a TGI in the assay with SN12C renal of over 100 µM.
Take `Cc1ccc(NC(=O)/C(=N/NC(=O)CC#N)C2C(=O)N(c3ccccc3)N=C2N)cc1C` (stereo not drawn): the TGI in the assay with HOP-62 NSCLC, with OVCAR-3 ovarian, in the assay on SK-MEL-2 melanoma, in the assay with HL-60(TB) leukemia, with SF-539 CNS and in the assay with SK-MEL-28 melanoma was over 100 µM each time. The TGI in the assay on KM12 colon and in the assay on SN12C renal was over 100 µM in each case.
For the compound `NC1=NN(c2ccccc2)C(=O)C1C(=O)C(=O)Nc1cccc(C(F)(F)F)c1` (stereo not drawn), the TGI in the assay on HOP-62 NSCLC, with OVCAR-3 ovarian, in the assay on SK-MEL-2 melanoma, in the assay with HL-60(TB) leukemia, in the assay with SF-539 CNS and in the assay with KM12 colon was over 100 µM throughout. In the assay with SN12C renal, the TGI was over 100 µM.
For `O=C(/C=C\c1cccc2ccccc12)c1ccc(Br)cc1`, the TGI with HOP-62 NSCLC was over 100 µM; in the assay with OVCAR-3 ovarian, 34.4 µM; in the assay on HL-60(TB) leukemia, 43 µM; with SF-539 CNS, 41.9 µM; with SK-MEL-28 melanoma, 27.7 µM; with KM12 colon, 28.3 µM. In the assay with SN12C renal, this compound displayed a TGI of over 100 µM.
For the compound `O[C@H]1[C@H]2[C@H](O)CCCN2C[C@H]1O`, the TGI in the assay with HOP-62 NSCLC, with OVCAR-3 ovarian, in the assay on SK-MEL-2 melanoma, in the assay on HL-60(TB) leukemia, in the assay with SF-539 CNS and in the assay on SK-MEL-28 melanoma was over 100 µM each time. Besides, the TGI in the assay with KM12 colon and in the assay on SN12C renal was over 100 µM each time.
On to `C/C=C/CP(=O)(c1ccccc1)c1ccccc1`, for which the TGI in the assay with HOP-62 NSCLC, in the assay on OVCAR-3 ovarian, with SK-MEL-2 melanoma, in the assay on HL-60(TB) leukemia, in the assay on SF-539 CNS and in the assay on SK-MEL-28 melanoma was over 100 µM each time. For the same compound, the TGI in the assay on KM12 colon and in the assay on SN12C renal was over 100 µM in each case.
Take `NC(=S)N/N=C1\C(=O)N(c2cccc([N+](=O)[O-])c2)C(=O)C1C(=O)Nc1cccc([N+](=O)[O-])c1` (stereo not drawn): the TGI in the assay with HOP-62 NSCLC, in the assay with OVCAR-3 ovarian, in the assay with SK-MEL-2 melanoma, with HL-60(TB) leukemia, in the assay on SF-539 CNS and in the assay with SK-MEL-28 melanoma was over 100 µM throughout. This compound also gave a TGI in the assay on SN12C renal of over 100 µM.
On to `CC1(C)OC(=O)C=C(O)O1.CC1(C)OC(=O)C=C(O)O1.CCO.Oc1ccc2c(c1)CCC2.[Ti]`, for which the GI50 with HOP-62 NSCLC, with OVCAR-3 ovarian, in the assay on SK-MEL-2 melanoma, with HL-60(TB) leukemia, in the assay with SF-539 CNS and with SK-MEL-28 melanoma was over 100 µM each time. For the same compound, the GI50 in the assay on KM12 colon and in the assay on SN12C renal was over 100 µM in each case. Further, the TGI in the assay with HOP-62 NSCLC, in the assay with OVCAR-3 ovarian, with SK-MEL-2 melanoma, in the assay with HL-60(TB) leukemia, with SF-539 CNS and with SK-MEL-28 melanoma was over 100 µM each time. For the same compound, the TGI in the assay with KM12 colon and in the assay on SN12C renal was over 100 µM throughout.

The record behind these values is PubChem BioAssay (NCI).
